In patent US11541029B2, “High penetration compositions and their applications” (Techfields Pharma Co., Ltd., priority 2008, dated 2023):

Assays:
[1] = Amount of salicylic acid in rat cerebrospinal fluid (CSF), 0.3 mmol/kg; type: in vivo, rats
Method: 27 male rats were divided into 4 groups […]. […] Amounts of salicylic acid in rat CSF were determined.

[2] = tested on: type 2 diabetes rat models [SLAC/GK(Goto and Kakisaki)]; experiment: Hypoglycemic effects of aspirin and its HPC in GK rats, once per day for 6 weeks; type: in vivo; settings: for Blood Glucose Levels at day 1 / Blood Glucose Levels at day 42: no fasting, n = 5;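 on Blood Glucose Levels at day 42: blood glucose in mg/dL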
Method: The blood glucose levels were measured three times every week (no fasting) from the third week to the sixth week.

normal SD rats (SLAC/SD) = experiment: Blood glucose in normal SD rats treated with HPCs of NSAIAs; type: in vivo; settings: 30 mg/kg transdermally once per day, no fasting
Summary of the method: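 GK (type 2 diabetic) and normal SD rats, 14-16 weeks old, n=7, received 30 mg/kg test compound in 25% ethanol transdermally on a 6 cm^2 shaved back area once daily at 8 am for 6 weeks. Non-fasting blood glucose was measured at 4:30 pm every 3 days from week 3 to week 6.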

SLAC/MRL/LPR mice = experiment: Lupus in MRL/LPR mice treated from 16 weeks old, 30 mg/kg (10% aq.) on back skin twice per day; type: in vivo
Method: . Progression of lupus was monitored once a week by measurement of hematuria, body weight and survival rate. The experiments were carried out in two groups of mice. One group of mice were 8 weeks old and had not shown SLE characteristics (Table 26a). The other group of mice were 16 weeks old, and had shown SLE characteristics (Table 26b).

## CCN(CC)CCOC(=O)c1ccccc1OC(C)=O.Cl [P-1, diethylaminoethyl acetylsalicylate.HCl salt]
[1]; intramuscularly, 1 hour
  salicylic acid in CSF: 36.4 ± 4.3 nmol/g
[1]; intramuscularly, 8 hours
  salicylic acid in CSF: 28.2 ± 6.5 nmol/g
[1]; intramuscularly, 18 hours
  salicylic acid in CSF: 15.1 ± 4.7 nmol/g
[1]; transdermally, 1 hour
  salicylic acid in CSF: 38 ± 17 nmol/g
[1]; transdermally, 8 hours
  salicylic acid in CSF: 28.4 ± 7.5 nmol/g
[1]; transdermally, 18 hours
  salicylic acid in CSF: 22.3 ± 5.4 nmol/g
[2]; 50 mg/kg, orally
  Blood Glucose Levels at day 1: 215.6 ± 19.5 mg/dL
  Blood Glucose Levels at day 42: 172.4 ± 21.5 mg/dL
[2]; 50 mg/kg, transdermally
  Blood Glucose Levels at day 1: 217.3 ± 19.7 mg/dL
  Blood Glucose Levels at day 42: 135.4 ± 19.8 mg/dL
[2]; 100 mg/kg, orally
  Blood Glucose Levels at day 1: 216.4 ± 18.5 mg/dL
  Blood Glucose Levels at day 42: 133.4 ± 23.1 mg/dL
[2]; 100 mg/kg, transdermally
  Blood Glucose Levels at day 1: 219.8 ± 20.4 mg/dL
  Blood Glucose Levels at day 42: 115.4 ± 16.7 mg/dL
[2]; 200 mg/kg, orally
  Blood Glucose Levels at day 1: 214.4 ± 26.5 mg/dL
  Blood Glucose Levels at day 42: 125.4 ± 26.8 mg/dL
[2]; 200 mg/kg, transdermally
  Blood Glucose Levels at day 1: 219.4 ± 23.5 mg/dL
  Blood Glucose Levels at day 42: 111.4 ± 23.2 mg/dL
[2]; 300 mg/kg, orally
  Blood Glucose Levels at day 1: 217.4 ± 25.5 mg/dL
  Blood Glucose Levels at day 42: 115.4 ± 18.2 mg/dL
[2]; oral administration
  anti-diabetic effect, times stronger than that of aspirin: more than 5 times
Normal SD rats (SLAC/SD)
  blood glucose, Average (Week 2-5): 5.7 ± 1.3 mmol/L
  blood glucose, Day 1: 5.8 ± 1.5 mmol/L
SLAC/MRL/LPR mice; week 16
  Body Weight: 42.6 ± 2.1 g
  Hematuria (0-4): 1.70 ± 0.26
  Survival Rate: 10/10
SLAC/MRL/LPR mice; week 17
  Body Weight: 44.2 ± 2.0 g
  Hematuria (0-4): 1.50 ± 0.17
  Survival Rate: 10/10
SLAC/MRL/LPR mice; week 18
  Body Weight: 46.6 ± 2.4 g
  Hematuria (0-4): 1.30 ± 0.15
  Survival Rate: 10/10
SLAC/MRL/LPR mice; week 19
  Body Weight: 47.9 ± 2.5 g
  Hematuria (0-4): 0.80 ± 0.13
  Survival Rate: 10/10
SLAC/MRL/LPR mice; week 20
  Body Weight: 46.8 ± 2.0 g
  Hematuria (0-4): 0.80 ± 0.13
  Survival Rate: 10/10
SLAC/MRL/LPR mice; week 21
  Body Weight: 47.2 ± 2.2 g
  Hematuria (0-4): 0.80 ± 0.13
  Survival Rate: 10/10
SLAC/MRL/LPR mice; week 22
  Body Weight: 47.6 ± 1.9 g
  Hematuria (0-4): 0.80 ± 0.20
  Survival Rate: 10/10
SLAC/MRL/LPR mice; week 23
  Body Weight: 47.1 ± 2.3 g
  Hematuria (0-4): 0.80 ± 0.20
  Survival Rate: 10/10
SLAC/MRL/LPR mice; week 24
  Body Weight: 46.8 ± 2.1 g
  Hematuria (0-4): 0.80 ± 0.20
  Survival Rate: 10/10
SLAC/MRL/LPR mice; week 25
  Body Weight: 47.2 ± 2.0 g
  Hematuria (0-4): 0.70 ± 0.15
  Survival Rate: 10/10
SLAC/MRL/LPR mice; week 26
  Body Weight: 46.9 ± 2.6 g
  Hematuria (0-4): 0.70 ± 0.15
  Survival Rate: 10/10
SLAC/MRL/LPR mice; week 27
  Body Weight: 47.3 ± 2.0 g
  Hematuria (0-4): 0.60 ± 0.22
  Survival Rate: 10/10
SLAC/MRL/LPR mice; week 28
  Body Weight: 47.6 ± 2.4 g
  Hematuria (0-4): 0.70 ± 0.15
  Survival Rate: 10/10
SLAC/MRL/LPR mice; week 29
  Body Weight: 47.2 ± 2.5 g
  Hematuria (0-4): 0.70 ± 0.15
